Assay results reported in patent publication US20040204417A1, “Novel benzothienyl or indole derivatives, preparation and use thereof as inhibitors of prenyl transferase proteins” (priority 2001, published 2004).

Tests used:
[1] = biological target: T1, protein farnesyl transferase (Bos taurus, UniProt P29702+P49355); assay: Evaluation of the inhibition of protein farnesyl transferase (dansyl-GCVLS fluorescence); format: biochemical, bovine; conditions: read-out: IC50 PFTase
T1 construct: partially purified from bovine brain by ion-exchange chromatography; from tissue; host or cells: bovine brain
Protocol: A) Evaluation of the inhibition of protein farnesyl transferase
The farnesylation of the dansylated peptide GCVLS, catalyzed with the enzyme protein farnesyl transferase, results in a change in the emission spectrum of the dansyl group, and especially an increase in the emission at 505 nm when the molecule is excited at 340 nm. When measured using the spectrofluorimeter, this emission is proportional to the activity of the enzyme (Pompliano et al., J. Am. Chem. Soc. 1992; 114: 7945-7946).
55 mM TRIS/HCl pH 7.5; 5.5 mM DTT; 5.5 mM MgCl2; 110 μM ZnCl2, 0.22% B-octyl-B D-glucopyrannoside.
Farnesyl pyrophosphate (FPP), (Sigma)
Dansylated peptide dansyl-GCVLS (Neosystem/Strasbourg, France)
The protein farnesyl transferase is partially purified from bovine brain by ion-exchange chromatography on Q-sepharose (Pharmacia) (Moores et al., J. Biol. Chem. 1991, 266: 14603-14610, Reiss et al., Cell 1990, 62: 81-88).
The reaction mixture containing 2 μM of FPP, 2 μM of dansyl GCVLS with or without (zero) the amount of enzyme giving an intensity of 100 on the spectrofluorimeter after incubation for 10 minutes at 37° C., is prepared on ice.
In an Eppendorf tube, 360 μl of reaction mixture are mixed with 40 μl of 10× concentrated test product or of solvent, and incubated for 10 minutes at 37° C. The reaction is quenched on ice and the fluorescence intensity is measured (excitation at 340 nm, 4 nm slit, emission at 505 nm, 10 nm slit). The tests are performed in duplicate. The results are expressed as a percentage of inhibition. Under these conditions, the derivatives of the present invention were identified as powerful inhibitors of protein farnesyl transferase (IC50<10 μM).
Adaptation of the method to a 96-wellformat:
The procedure is similar to that above, except that the measurements are performed in a “Black Fluorotrack 200” 96-well device (Greiner, Poitiers, France) and the readings are performed using a “Spectrametrix Gemini” 96-well fluorimeter (Molecular Devices, Sunnyvale, Calif., USA)

GGPT I = biological target: T2, GGPT I (Bos taurus, UniProt P29702+Q5EAD5); assay: Evaluation of the inhibition of geranyl geranyl transferase protein I (3H-GGPP incorporation into RhoA-GST); format: biochemical, bovine; conditions: read-out: IC50 PGGTase
T2 construct: GGPT I is partially purified from bovine brain by ion-exchange chromatography; from tissue; host or cells: bovine brain
Protocol: B) Evaluation of the inhibition of geranyl geraryl transferase protein I:
55 mM TRIS/HCl pH 7.5; 5.5 mM DTT; 5.5 mM MgCl2; 110 μM ZnCl2, 0.22% N-octyl-B D-glucopyrannoside.
^3H-geranylgeranyl pyrophosphate (GGPP), 66 μM, 15 CI/mmol, (Isotopchim)
Rho-GST recombinant protein
GGPT I is partially purified from bovine brain by ion-exchange chromatography on Q-sepharose (Pharmacia); elution at 0.23 and 0.4 M NaCl, respectively.
The reaction mixture containing 0.2 μM of ^3H-GGPP, 1 μM of RhoA-GST with or without (zero) 5 μl of GGPT/test, is prepared on ice.
In an Eppendorf tube, 45 μl of reaction mixture are mixed with 5 μl of 10× concentrated test product or of solvent, and incubated for 45 minutes at 37° C. A 45 μl aliquot is placed on a phosphocellulose P81 filter (Whatman, Maidstone, UK) numbered, washed with 50% ethanol, phosphoric acid (0.5%) and counted by scintillation.
The tests are performed in duplicate. The results are expressed as a percentage of inhibition.
Adaptation of the method to a 96-wellformat
The procedure is similar to that above, except that the measurements are performed in 96-well plates (Nunc, France) and the reactions are then passed through a 96-well “Unifilter” (Whatman, Maidstone, UK) containing a phosphocellulose P81 buffer using a “Filtermate 196” system (Packard, France).
After washing with 50% ethanol and phosphoric acid (0.5%), the filters are counted by scintillation on a “Packard Topcount” instrument.
The tests are performed in triplicate. The results are expressed as a percentage of inhibition.

**Q.** `N#Cc1ccc(Cn2cncc2CN(C(=O)c2cccs2)c2ccc3sc(C(=O)N4CCSCC4)cc3c2)cc1` [Example 91, N-[3-(4-Cyanobenzyl)-3H-imidazol-4-ylmethyl]-N-[2-(thiomorpholine-4-carbonyl)benzo[b]thiophen-5-yl]thiophene-2-carboxamide] was tested. Which IC50 [1] did it give?
**A.** 2 nM

**Q.** Which results are given for `N#Cc1ccc(Cn2cncc2CN(C(=O)C2CCCCC2)c2ccc3[nH]c(C(=O)N4CCCCC4)c(-c4ccccc4)c3c2)cc1` [Example 167, Cyclohexanecarboxylic-[3-(4-cyanobenzyl)-3H-imidazol-4-ylmethyl]-[3-phenyl-2-(piperidine-1-carbonyl)-1H-indol-5-yl]amide acid]?
**A.** IC50 [1]: 400 nM; IC50 (GGPT I): 7 nM

**Q.** With `CCOC(=O)c1cc2cc(NCc3cncn3Cc3ccc(C#N)cc3)ccc2s1` [Example 34, Ethyl 5-{[3-(4-cyanobenzyl)-3H-imidazol-4-ylmethyl]amino}benzo[b]thiophene-2-carboxylate] as the compound, how does the IC50 [1] read?
**A.** 10 nM

**Q.** How did the IC50 [1] turn out when `COC(=O)[C@H](CCSC)NC(=O)c1cc2cc(N(Cc3cncn3Cc3ccc(C#N)cc3)S(=O)(=O)c3ccccc3)ccc2s1` [Example 40] was run?
**A.** 2 nM

**Q.** `CCCCNC(=O)c1cc2cc(N(Cc3cncn3Cc3ccc(C#N)cc3)S(=O)(=O)c3ccccc3)ccc2s1` [Example 57, N-Butyl-5-{benzenesulfonyl-[3-(4-cyanobenzyl)-3H-imidazol-4-ylmethyl]amino}benzo[b]thiophene-2-carboxamide] was tested. Which IC50 [1] did it give?
**A.** 3 nM

**Q.** For `N#Cc1ccc(Cn2cncc2CN(C(=O)c2ccccc2)c2ccc3[nH]c(C(=O)N4CCSCC4)c(-c4ccccc4)c3c2)cc1` [Example 165, N-[3-(4-Cyanobenzyl)-3H-imidazol-4-ylmethyl]-N-[3-phenyl-2-(thiomorpholine-4-carbonyl)-1H-indol-5-yl]benzamide], which IC50 [1] is on record?
**A.** 10 nM

**Q.** What about the IC50 (GGPT I) of the same compound?
**A.** 60 nM

**Q.** With `N#Cc1ccc(Cn2cncc2CN(C(=O)c2cccc(F)c2)c2ccc3sc(C(=O)N4CCSCC4)cc3c2)cc1` [Example 97, N-[3-(4-Cyanobenzyl)-3H-imidazol-4-ylmethyl]-N-[2-(thiomorpholine-4-carbonyl)benzo[b]thiophen-5-yl]-3-fluorobenzamide] as the compound, how does the IC50 [1] read?
**A.** 1 nM

**Q.** With `N#Cc1ccc(Cn2cncc2CN(C(=O)Cc2ccccc2)c2ccc3sc(C(=O)N4CCSCC4)cc3c2)cc1` [Example 100, N-[3-(4-Cyanobenzyl)-3H-imidazol-4-ylmethyl]-N-[2-(thiomorpholine-4-carbonyl)benzo[b]thiophen-5-yl]-2-phenylacetamide] as the compound, how does the IC50 [1] read?
**A.** 6 nM

**Q.** For `N#Cc1ccc(Cn2cncc2CN(C(=O)C2CCCCC2)c2ccc3sc(C(=O)N4CCSCC4)cc3c2)cc1` [Example 101, N-[3-(4-Cyanobenzyl)-3H-imidazol-4-ylmethyl]-N-[2-(thiomorpholine-4-carbonyl)benzo[b]thiophen-5-yl]cyclohexanecarboxamide], which IC50 [1] is on record?
**A.** 5 nM

**Q.** For `CCCC(=O)N(Cc1cncn1Cc1ccc(C#N)cc1)c1ccc2sc(C(=O)N3CCSCC3)cc2c1` [Example 92, N-[3-(4-Cyanobenzyl)-3H-imidazol-4-ylmethyl]-N-[2-(thiomorpholine-4-carbonyl)benzo[b]thiophen-5-yl]butyramide], which IC50 [1] is on record?
**A.** 2 nM

**Q.** For `N#Cc1ccc(Cn2cncc2CN(c2ccc3sc(C(=O)NCc4cccs4)cc3c2)S(=O)(=O)c2ccccc2)cc1` [Example 46, N-(Thiophen-2-ylmethyl)-5-{benzenesulfonyl-[3-(4-cyanobenzyl)-3H-imidazol-4-ylmethyl]amino}benzo[b]thiophene-2-carboxamide], which IC50 [1] is on record?
**A.** 1 nM

**Q.** With `CC(C)C[C@H](NC(=O)c1cc2c(NCc3cncn3Cc3ccc(C#N)cc3)cccc2s1)C(=O)O` [Example 28, (2S)-2-[(4-{[3-(4-cyanobenzyl)-3H-imidazol-4-ylmethyl]amino}benzo[b]thiophene-2-carbonyl)amino]-4-methylpentanoic acid] as the compound, how does the IC50 [1] read?
**A.** 4 nM

**Q.** What about the IC50 (GGPT I) of the same compound?
**A.** 10 nM

**Q.** What does the source list for `CC(C)C[C@H](NC(=O)c1cc2cc(N(Cc3cncn3Cc3ccc(C#N)cc3)S(=O)(=O)c3ccccc3)ccc2s1)C(=O)O` [Example 33, (2S)-2-[(5-{benzenesulfonyl-[3-(4-cyanobenzyl)-3H-imidazol-4-ylmethyl]amino}benzo[b]thiophene-2-carbonyl)amino]-4-methylpentanoic acid]?
**A.** IC50 [1]: 6 nM; IC50 (GGPT I): 70 nM

**Q.** With `CSCC[C@H](NC(=O)c1cc2c(N(Cc3cncn3Cc3ccc(C#N)cc3)S(=O)(=O)c3ccccc3)cccc2s1)C(=O)O` [Example 30, (2S)-2-[(4-{benzenesulfonyl-[3-(4-cyanobenzyl)-3H-imidazol-4-ylmethyl]amino}benzo[b]thiophene-2-carbonyl)amino]-4-(methylsulfanyl)butyric acid] as the compound, how does the IC50 [1] read?
**A.** 6 nM

**Q.** With `CCCCN(Cc1cncn1Cc1ccc(C#N)cc1)c1ccc2sc(C(=O)N3CCSCC3)cc2c1` [Example 113, 4-[5-({Butyl[2-(thiomorpholine-4-carbonyl)benzo[b]thiophen-5-yl]amino}methyl)imidazol-1-ylmethyl]benzonitrile] as the compound, how does the IC50 [1] read?
**A.** 8 nM

**Q.** What does the source list for `N#Cc1ccc(Cn2cncc2CN(C(=O)c2ccccc2)c2ccc3[nH]c(C(=O)N4CCCCC4)c(-c4ccccc4)c3c2)cc1` [Example 164, N-[3-(4-Cyanobenzyl)-3H-imidazol-4-ylmethyl]-N-[3-phenyl-2-(piperidine-1-carbonyl)-1H-indol-5-yl]benzamide]?
**A.** IC50 [1]: 8 nM; IC50 (GGPT I): 20 nM

**Q.** How did the IC50 [1] turn out when `N#Cc1ccc(Cn2cncc2CN(c2ccc3sc(C(=O)NC4CCCC4)cc3c2)S(=O)(=O)c2ccccc2)cc1` [Example 55, N-Cyclopentyl-5-{benzenesulfonyl-[3-(4-cyanobenzyl)-3H-imidazol-4-ylmethyl]amino}benzo[b]thiophene-2-carboxamide] was run?
**A.** 3 nM
